Measured values as given in US20250375436A1, “SERDEXMETHYLPHENIDATE FOR TREATMENT OF IDIOPATHIC HYPERSOMNIA” (ZEVRA THERAPEUTICS, INC., priority 2024, published 2025).

Legend:
[1] = Comparator study with Ritalin: plasma d-MPH PK; assay type: in vivo, human; settings: single 80 mg and single 200 mg doses
Procedure: Ritalin is a racemate of d-methylphenidate approved for treating narcolepsy, which is a similar disorder of hypersomnolence characterized by significant excessive daytime sleepiness. The PK profiles of patient administered 80 mg or 200 mg of serdexmethylphenidate are compared to the PK profiles of patients administered 40 mg of Ritalin twice, 5 hours apart, and a single dose of 80 mg of Ritalin.

[2] = Comparison of serdexmethylphenidate to other prescription treatments for sleep disorders (key attributes)
Description: The data presented in the preceding examples supports the conclusion that serdexmethylphenidate has several advantages over other treatments for IH.
Most importantly, serdexmethylphenidate improves IH, EDS, SI, and BF symptoms; none of the other treatment options in Table 6 improve symptoms in all of the instant sleep disorder. […] Additionally, serdexmethylphenidate has advantageous dosing amounts and dosing schedules compared to both XYWAV® and LUMRYZ®. For example, XYWAV® requires two nighttime dosages, whereas serdexmethylphenidate reduces sleep disorder symptoms with only a single dose before bedtime.

[3] = tested on: adults with IH; assay: Phase 2 IH study: Epworth Sleepiness Scale (ESS); assay type: in vivo, human; settings: for ESS, Mean, Titration Baseline: before treatment; for ESS, Mean, Randomization Baseline (Week 5): end of open-label titration; for ESS, Difference in LS Mean (SE): SDX vs placebo, ANCOVA
Description: “Epworth Sleepiness Scale” or “ESS,” as it relates to the present technology, means a self-administered questionnaire with 8 questions. Respondents are asked to rate, on a 4-point scale (0-3), their usual chances of dozing off or falling asleep while engaged in eight different activities. Most people engage in those activities at least occasionally, although not necessarily every day. The ESS score (the sum of 8 item scores, 0-3) can range from 0 to 24. The higher the ESS score, the higher that person's average sleep propensity in daily life (ASP), or their ‘daytime sleepiness’. ESS score are generally interpreted as follows: 0-5, lower normal daytime sleepiness; 6-10 higher normal daytime sleepiness; 11-12, mild excessive daytime sleepiness; 13-15, moderate excessive daytime sleepiness; and 16-24, severe excessive daytime sleepiness. [https://epworthsleepinessscale.com/about-theess/]herein incorporated by reference.
(§1) A double-blind, placebo-controlled, randomized-withdrawal, dose-optimizing, multi-center study investigated the safety and efficacy of serdexmethylphenidate for the treatment of IH. Twenty-two (22) patients completed a 7-week study consisting of two parts. Part 1 of the trial comprised a five-week open-label titration phase during which patients were optimized to one of four total daily doses of serdexmethylphenidate (80, 160, 240, or 320 mg/day). About half the study participants were assigned to take the total daily dose of study drug once per day just before going to bed (QD dosing cohort). The other half was instructed to take half the daily dose of study drug in the morning after awakening and the second half of the daily dose just before going to bed (BID dosing cohort). The titration procedure during the 5-week open label period was conducted as follows: patient treatment was initiated with the lowest total daily dose (80 mg/day) regardless of dosing regimen. At subsequent clinical visits scheduled at intervals of about 1 week each, the dose of the patient was either decreased (except after the first week), maintained, or increased based on tolerability, clinical effect, and adverse events. Depending on the severities of any dose-limiting effects as determined by the clinician, the dose was decreased if possible or the patient was discontinued from the study. If the dose was tolerated by the patient and the clinician determined an opportunity to improve effectiveness, the dose of study drug was increased if possible. Otherwise, the dose was maintained in the subsequent week.
(§2) Part 2 of the trial comprised a two-week randomized (2:1), double-blind, withdrawal phase, during which two-thirds of the trial participants continued to receive their optimized dose while the remaining one-third received placebo. During the withdrawal phase, patients continued the same dosing regimen (QD or BID) they were assigned to at treatment initiation and adhered to during the titration phase.
(§3) Secondary efficacy endpoints included Excessive Daytime Sleepiness (EDS) assessed with the Epworth Sleepiness Scale (ESS). Additional secondary endpoints were based on the Idiopathic Hypersomnia Severity Scale (IHSS), daily rating of difficulty of waking up in the morning assessed with the Sleep Inertia Visual Analog Scale (SI-VAS), and rating of brain fog symptoms measured with an exploratory Brain Fog Scale (BFS). Scores on the ESS, IHSS, and BFS were based on a 1-week look-back period.
The minimally clinically important difference for the ESS scale is 2-3 points. The horizontal dashed line at an ESS score of 10 points marks the boundary between “normal” levels of daytime sleepiness and “excessive” levels of daytime sleepiness. Scores of 10 and less are generally considered “healthy” or “normal” levels of daytime sleepiness whereas scores greater than 10 are considered “excessive”.

[4] = tested on: adults with IH; assay: Phase 2 IH study: Idiopathic Hypersomnia Severity Scale (IHSS); assay type: in vivo, human; settings: for IHSS, Mean, Titration Baseline: before treatment; for IHSS, Mean, Randomization Baseline (Week 5): end of open-label titration; for IHSS, Difference in LS Mean (SE): SDX vs placebo, ANCOVA
Description: “Idiopathic Hypersomnia Severity Scale” or “IHSS,” as it relates to the present technology, means a self-administered 14 question survey. Respondents are asked to rate on a 4-point scale (0-3) the severity of IH symptoms such as prolonged and/or unrefreshing daytime and nighttime sleep; impaired daytime alertness, and sleep inertia. The total possible score is 50 if all questions are rated at the maximum score. IHSS scores are generally interpreted as follows: 0-12, mild; 13-25, moderate; 26-38, severe; and 39-50, very severe.
as §1, §2, §3
The minimally clinically important difference for the IHSS is 4 points. The horizontal dashed line at an IHSS score of 22 points marks the boundary between “normal” individuals and individuals that may have a sleep disorder with more severe symptoms of idiopathic hypersomnia. Scores of 22 and less are generally considered “healthy” or “normal” whereas scores greater than 22 indicate symptoms of idiopathic hypersomnia.

## COC(=O)[C@H](c1ccccc1)[C@H]1CCCCN1C(=O)OC[n+]1cccc(C(=O)N[C@@H](CO)C(=O)O)c1 [SDX, serdexmethylphenidate]
[1]
  AUC0-24 and AUCinf compared to Ritalin: higher
  Cmax concentrations compared to Ritalin: lower
  Tmax compared to Ritalin: longer
[2]
  Abnormal Rapid Eye Movement (REM) sleep cycles: does not result in abnormal Rapid Eye Movement (REM) sleep cycles
  IH, EDS, SI, and BF symptoms: improves
[3]; BID Cohort, SDX (N = 17)
  ESS, Mean Change from Randomization Baseline to Week 7: 0.1
  ESS, Mean, End of Withdrawal Period (Week 7): 7.6
  ESS, Mean, Titration Baseline: 16.5
  ESS, Mean, Randomization Baseline (Week 5): 7.5
[3]; BID Cohort, p-value 0.005
  ESS, Difference in LS Mean (SE): −5.6 (1.88)
[3]; QD Cohort, SDX (N = 15)
  ESS, Mean Change from Randomization Baseline to Week 7: 0.0
  ESS, Mean, End of Withdrawal Period (Week 7): 7.5
  ESS, Mean, Titration Baseline: 16.9
  ESS, Mean, Randomization Baseline (Week 5): 7.5
[3]; QD Cohort, p-value 0.818
  ESS, Difference in LS Mean (SE): 0.5 (2.07)
[3]; both QD and BID cohorts, end of the 5-week titration period
  Decrease in mean ESS score: 8-10 points
[4]; BID Cohort, SDX (N = 17)
  IHSS, Mean Change from Randomization Baseline to Week 7: 0.3
  IHSS, Mean, End of Withdrawal Period (Week 7): 21.6
  IHSS, Mean, Titration Baseline: 34.3
  IHSS, Mean, Randomization Baseline (Week 5): 21.3
[4]; BID Cohort, p-value 0.104
  IHSS, Difference in LS Mean (SE): −9.0 (3.48)
[4]; QD Cohort, SDX (N = 15)
  IHSS, Mean Change from Randomization Baseline to Week 7: 0.7
  IHSS, Mean, End of Withdrawal Period (Week 7): 19.3
  IHSS, Mean, Titration Baseline: 35.4
  IHSS, Mean, Randomization Baseline (Week 5): 18.6
[4]; QD Cohort, p-value 0.208
  IHSS, Difference in LS Mean (SE): 0.9 (3.73)
[4]; all patients, 5-week titration period
  Decrease in mean IHSS score: 12-17 points
[4]; patients continuing treatment during the 2-week withdrawal period
  Change in mean IHSS score: no more than 0.7 points
